Here are results for 29 molecules from patent US7087626B2, “Pyrrole derivatives as pharmaceutical agents” (Eli Lilly and Company, priority 2001, dated 2006).

In the first experiment the target is T1, TGF-β Type I (RIT204D) receptor (Homo sapiens, UniProt P36897, T204D).
T1 construct: The 6×-HIS tagged cytoplasmic kinase domain of each receptor was expressed and purified from Sf9 insect cell lysates; 6xHis; made in house; host or cells: Sf9 insect cells
T1 sequence (P36897 148-503 T204D limits assumed): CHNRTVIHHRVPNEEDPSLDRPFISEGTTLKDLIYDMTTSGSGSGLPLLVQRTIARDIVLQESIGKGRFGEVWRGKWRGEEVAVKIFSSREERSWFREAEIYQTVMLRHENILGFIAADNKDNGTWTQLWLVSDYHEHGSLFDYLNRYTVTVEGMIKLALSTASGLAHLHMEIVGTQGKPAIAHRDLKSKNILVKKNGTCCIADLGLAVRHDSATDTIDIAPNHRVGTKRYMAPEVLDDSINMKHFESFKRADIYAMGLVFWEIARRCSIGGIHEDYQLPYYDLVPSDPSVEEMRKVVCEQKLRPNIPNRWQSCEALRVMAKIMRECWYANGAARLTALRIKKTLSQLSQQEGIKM
Description: TGF-β Receptor I (RIT204D) in vitro kinase reaction. Type of experiment: biochemical. The conditions noted are these: 6×-HIS cytoplasmic kinase domain, 4 uM ATP, 30° C., 1 hr. The protocol:
(§1) TGF-β Receptor I and II Purification and in vitro Kinase Reactions
(§2) For TGF-β Type I (RIT204D) and Type II (RII WT) Receptors: The 6×-HIS tagged cytoplasmic kinase domain of each receptor was expressed and purified from Sf9 insect cell lysates as briefly described below:
(§3) Cell pellets after 48-72 hrs of infection were lysed in lysis buffer (LB: 50 mM Tris pH 7.5, 150 mM NaCl, 50 mM NaF, 0.5% NP40 with freshly added 20 mM, β-mercaptoethanol, 10 mM imidazole, 1 mM PMSF, 1×EDTA-free Complete Protease Inhibitor (Boehringer Mannheim).
(§4) Reactions: 170-200 nM enzyme in 1×KB, compound dilution series in 1×KB/16% DMSO (20 uM to 1 nM final concentration with 4% DMSO final concentration), reactions started by adding ATP mix (4 uM ATP/1 uCi ^33P-[…]-ATP final concentrations) in 1×KB.
(§5) Reactions were incubated at 30° C. for 1 hr RIT204D or 40 min for RII WT. Reactions were stopped and quantitated using standard TCA/BSA precipitation onto Millipore FB glass fiber filter plates and by liquid scintillation counting on a MicroBeta JET.
Turning to `Cc1cccc(-c2nn3c(c2-c2cccnc2)CCC3)n1` [2-(6-methyl-pyridin-2-yl)-3-pyridin-3-yl-5,6-dihydro-4H-pyrrolo[1,2-b]pyrazole], the IC50 is less than 20 µM.

Take `Cc1cccc(-c2nn3c(c2-c2ccc(F)cc2)CCC3)n1` [3-(4-Fluorophenyl)-2-(6-methylpyridin-2-yl)-5,6-dihydro-4H-pyrrolo[1,2-b]pyrazole]: the IC50 is less than 20 µM.

Molecule `COc1ccc(-c2c(-c3cccc(C)n3)nn3c2CCC3)cc1` [3-(4-Methoxyphenyl)-2-(6-methylpyridin-2-yl)-5,6-dihydro-4H-pyrrolo[1,2-b]pyrazole] registered an IC50 of less than 20 µM.

With `COC(=O)/C=C/c1ccc2c(-c3c(-c4cccc(C)n4)nn4c3CCC4)ccnc2c1` [3-{4-[2-(6-Methyl-pyridin-2-yl)-5,6-dihydro-4H-pyrrolo[1,2-b]pyrazol-3-yl]-quinolin-7-yl}-acrylic acid methyl ester], the IC50 is less than 20 µM.

In turn, `CN(C)CCCN(C)C(=O)c1ccc2c(-c3c(-c4ccccn4)nn4c3CCC4)ccnc2c1` [4-(2-Pyridin-2-yl-5,6-dihydro-4H-pyrrolo[1,2-H]pyrazol-3-yl)-quinoline-7-carboxylic acid(3-dimethylamino-propyl)-methyl-amide] returned an IC50 of less than 20 µM.

For the molecule `CCCNC(=O)c1ccc2c(-c3c(-c4ccccn4)nn4c3CCC4)ccnc2c1` [4-(2-Pyridin-2-yl-5,6-dihydro-4H-pyrrolo[1,2-b]pyrazol-3-yl)-quinoline-7-carboxylic acid propylamide], the IC50 was less than 20 µM.

`c1csc(-c2nn3c(c2-c2ccnc4ccccc24)CCC3)c1` [4-(2-Thiophen-2-yl-5,6-dihydro-4H-pyrrolo[1,2-b]pyrazol-3-yl)quinoline] displayed an IC50 of less than 20 µM.

Molecule `Clc1cccc(-c2nn3c(c2-c2ccnc4ccccc24)CCCC3)c1` [4-[2-(3-Chloro-phemyl)-4,5,6,7-tetrahydro-pyrazolo[1,5-alpyridin-3-y]-quinoline] returned an IC50 of less than 20 µM.

Take `FC(F)(F)Oc1cccc(-c2nn3c(c2-c2ccnc4ccccc24)CCC3)c1` [4-[2-(3-Trifluoromethoxy-phenyl)-5,6-dihydro-4H-pyrrolo[1,2-b]pyrazol-3-yl]-quinoline]: the IC50 was less than 20 µM.

For the molecule `c1ccc(Cc2cccc(-c3nn4c(c3-c3ccnc5ccccc35)CCC4)n2)cc1` [4-[2-(6-Benzyl-pyridin-2-yl)-5,6-dihydro-4H-pyrrolo[1,2-b]pyrazol-3-yl]-quinoline], the IC50 was less than 20 µM.

For the molecule `CS(=O)(=O)c1ccc2c(-c3c(-c4ccccn4)nn4c3CCC4)ccnc2c1` [7-Methanesulfonyl-4-(2-pyridin-2-yl-5,6-dihydro-4H-pyrrolo[1,2-b]pyrazol-3-yl)-quinoline], the IC50 was less than 20 µM.

In turn, `CN(C)CCCCOc1cc(-c2c(-c3ccccn3)nn3c2CCC3)ccn1` [Dimethyl-{4-[4-(2-pyridin-2-yl-5,6-dihydro-4H-pyrrolo[1,2-b]pyrazol-3-yl)-pyridin-2-yloxy]-butyl}-amine] displayed an IC50 of less than 20 µM.

The molecule `CN(C)CCCNc1cc(-c2c(-c3ccccn3)nn3c2CCC3)ccn1` [N,N-Dimethyl-N′-[4-(2-pyridin-2-yl-5,6-dihydro-4H-pyrrolo[1,2-b]pyrazol-3-yl)-pyridin-2-yl]-propane-1,3-diamine] returned an IC50 of less than 20 µM.

`CC(=O)NCCCOc1ccc2c(-c3c(-c4ccccn4)nn4c3CCC4)ccnc2c1` [N-{3-[4-(2-Pyridin-2-yl-5,6-dihydro-4H-pyrrolo[1,2-b]pyrazol-3-yl)-quinolin-7-yloxy]-propyl}-acetamide] yielded an IC50 of less than 20 µM.

The next experiment concerns the target T2, TGF-β Type II (RII WT) receptor (Homo sapiens, UniProt P37173).
T2 construct: The 6×-HIS tagged cytoplasmic kinase domain of each receptor was expressed and purified from Sf9 insect cell lysates; 6xHis; made in house; host or cells: Sf9 insect cells
T2 sequence (P37173 244-544 limits assumed): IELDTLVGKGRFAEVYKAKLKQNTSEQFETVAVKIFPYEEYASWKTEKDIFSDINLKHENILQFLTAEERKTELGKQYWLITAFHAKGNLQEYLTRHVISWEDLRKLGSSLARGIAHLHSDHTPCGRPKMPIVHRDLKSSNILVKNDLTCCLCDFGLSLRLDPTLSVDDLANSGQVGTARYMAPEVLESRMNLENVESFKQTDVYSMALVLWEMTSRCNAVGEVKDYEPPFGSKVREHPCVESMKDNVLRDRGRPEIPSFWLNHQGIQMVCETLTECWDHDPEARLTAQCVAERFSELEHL
Description: TGF-β Receptor II (RII WT) in vitro kinase reaction. Type of experiment: biochemical. The conditions noted are these: 6×-HIS cytoplasmic kinase domain, 4 uM ATP, 30° C., 40 min. The protocol: as §1, §2, §3
Cell lysates were clarified: by centrifugation and […] filtered prior to purification by Ni/NTA affinity chromatography (Qiagen).
Equilibrate with 10 CV of LB, load sample, wash with 10 CV RIPA buffer (50 mM Tris pH 7.5, 150 mM NaCl, 1% NP40, 1 mM EDTA, 0.25% sodium deoxycholate, added fresh 20 mM β-mercaptoethanol, 1 mM PMSF), wash with 10 CV LB, wash with 10 CV 1×KB (50 mM Tris pH 7.5, 150 mM NaCl, 4 mM MgCl2, 1 mM NaF, 2 mM β-mercaptoethanol), elute with a linear gradient of 1×KB containing 200 mM Imidazole.
Both enzymes were approximately 90% pure and had autophosphorylation activity.
as §4, §5
`OC1CCCc2c(-c3ccnc4ccccc34)c(-c3ccccn3)nn21` (centres unmarked) [2-Pyridin-2-yl-3-quinolin-4-yl-pyrazolo[1,5-a]piperidin-7-ol] showed an IC50 of less than 20 µM.

In turn, `O=C1OCCN1c1ccc2c(-c3c(-c4ccccn4)nn4c3CCC4)ccnc2c1` [3-[4-(2-Pyridin-2-yl-5,6-dihydro-4H-pyrrolo[1,2-b]pyrazol-3-yl)-quinolin-7-yl]-oxazolidin-2-one] showed an IC50 of less than 20 µM.

Regarding `Cc1cccc(-c2nn3c(c2-c2ccnc4cc(C=CC(=O)O)ccc24)CCC3)n1` [3-{4-[2-(6-Methyl-pyridin-2-yl)-5,6-dihydro-4H-pyrrolo[1,2-b]pyrazol-3-yl]-quinolin-7-yl}-acrylic acid], the IC50 is less than 20 µM.

`Nc1ccc2c(-c3c(-c4ccccn4)nn4c3CCC4)ccnc2c1` [4-(2-Pyridin-2-yl-5,6-dihydro-4H-pyrrolo[1,2-b]pyrazol-3-yl)-quinolin-7-ylamine]: the IC50 was less than 20 µM.

On to `O=C(NC1CC1)c1ccc2c(-c3c(-c4ccccn4)nn4c3CCC4)ccnc2c1` [4-(2-Pyridin-2-yl-5,6-dihydro-4H-pyrrolo[1,2-b]pyrazol-3-yl)-quinoline-7-carboxylic acid cyclopropylamide], for which the IC50 was less than 20 µM.

`O=C(Nc1ccccn1)c1ccc2c(-c3c(-c4ccccn4)nn4c3CCC4)ccnc2c1` [4-(2-Pyridin-2-yl-5,6-dihydro-4H-pyrrolo[1,2-b]pyrazol-3-yl)-quinoline-7-carboxylic acid pyridin-2-ylamide] came in with an IC50 of less than 20 µM.

Molecule `CCC(C)CNC(=O)c1ccc2c(-c3c(-c4ccccn4)nn4c3CCC4)ccnc2c1` (centres unmarked) [4-(2-Pyridin-2-yl-5,6-dihydro-4H-pyrrolo[1,2-b]pyrazol-3-yl)-quinoline-7-carboxylic acid(2-methyl-butyl)-amide] registered an IC50 of less than 20 µM.

`FC(F)(F)c1cccc(-c2nn3c(c2-c2ccnc4ccccc24)CCC3)c1` [4-[2-(3-Trifluoromethylphenyl)-5,6-dihydro-4H-pyrrolo[1,2-b]pyrazol-3-yl]-quinoline] registered an IC50 of less than 20 µM.

On to `Cc1cccc(-c2nn3c(c2-c2ccnc4ccc(-c5ccccc5)cc24)CCC3)n1` [4-[2-(6-Methyl-pyridin-2-yl)-5,6-dihydro-4H-pyrrolo[1,2-b]pyrazol-3-yl]-6-phenyl-quinoline], for which the IC50 was less than 20 µM.

Molecule `COc1cccc(C2Cc3c(-c4ccnc5ccccc45)c(-c4ccccn4)nn3C2)c1` (centres unmarked) [4-[5-(3-Methoxy-phenyl)-2-pyridin-2-yl-5,6-dihydro-4H-pyrrolo[1,2-b]pyrazol-3-yl]-quinoline] registered an IC50 of less than 20 µM.

Regarding `ClCCCOc1ccc2c(-c3c(-c4ccccn4)nn4c3CCC4)ccnc2c1` [7-(3-Chloro-propoxy)-4-(2-pyridin-2-yl-5,6-dihydro-4H-pyrrolo[1,2-b]pyrazol-3-yl)-quinoline], the IC50 was less than 20 µM.

In turn, `CC(C)c1cc(-c2c(-c3ccccn3)nn3c2CCC3)c2ccc(Br)cc2n1` [7-Bromo-2-isopropyl-4-(2-pyridin-2-yl-5,6-dihydro-4H-pyrrolo[1,2-b]pyrazol-3-yl)-quinoline] came in with an IC50 of less than 20 µM.

Molecule `CN(C)CCOc1ccc2c(-c3c(-c4ccccn4)nn4c3CCC4)ccnc2c1` [Dimethyl-{2-[4-(2-pyridin-2-yl-5,6-dihydro-4H-pyrrolo[1,2-b]pyrazol-3-yl)-quinolin-7-yloxy]-ethyl}-amine] registered an IC50 of less than 20 µM.

In turn, `CCN(C)CCCOc1ccc2c(-c3c(-c4ccccn4)nn4c3CCC4)ccnc2c1` [Ethyl-methyl-{3-[4-(2-pyridin-2-yl-5,6-dihydro-4H-pyrrolo[1,2-b]pyrazol-3-yl)-quinolin-7-yloxy]-propyl}-amine] registered an IC50 of less than 20 µM.

The molecule `Cc1cccc(-c2nn3c(c2-c2ccnc4cc(Br)ccc24)CCC3CO)n1` (centres unmarked) [[3-(7-Bromo-quinolin-4-yl)-2-(6-methyl-pyridin-2-yl)-5,6-dihydro-4H-pyrrolo[1,2-b]pyrazol-6-yl]3-methanol] gave a 50% inhibitory concentration (IC50) of less than 20 µM.
